The values below come from publication PMC8780964, “Evaluation of the Pharmacokinetics of the Pancreastatin Inhibitor PSTi8 Peptide in Rats: Integration of In Vitro and In Vivo Findings” (Molecules, 2022).

Data set [1] can be described thus: Blood–plasma partitioning study (KRBC/PL).
Method: Fresh blood was collected from SD rats and used for the blood–plasma partitioning study. The blood was pre-incubated in a shaking water bath for 10 min at 37 ± 0.5 °C. […] During the study, the fresh rat plasma was separated from the same batch of whole blood. During the incubation time course, 250 µL aliquots of incubated whole blood samples were collected at different time points (0, 15, 30 and 60 min) and centrifuged at 10,000 g for 5 min at RT to obtain the plasma. At each time point, 100 µL aliquot of the reference plasma sample was collected. Both, 100 µL aliquot of generated plasma and reference plasma were processed and analyzed using the LC-MS/MS method. For the determination of hematocrit (Hc), heparinized whole blood (1.0 mL) was taken in a hematocrit tube and centrifuged at 2000 g for 30 min. The Hc for the whole blood was calculated by using Equation (2) [21, 22].
A short description of data set [2]: Equilibrium solubility in SGF and SIF. The class given is physicochemical. On the procedure:
The solubility of PSTi8 peptide was conducted using the equilibrium solubility method in SGF (pH 1.2) and SIF (pH 7.4). A total of 50 mg of PSTi8 was added to silanized glass vials containing 1 mL of buffer, and incubated for 1 h at 37 °C in a shaking water bath to attain equilibrium. After incubation, the samples were centrifuged for 10 min at 12,000 g, and supernatant was processed through SPE procedure and used for LC-MS/MS analysis.

A short description of data set [3]: Dose proportionality PK study, i.p., male SD rats. To be noted: for AUC(0-inf) / Cmax / Tmax / half-life: male, SD, rat, plasma, ip.
Method: Male SD rats were utilized in this study and distributed into two groups (each group contained 6 animals). To each group, PSTi8 was administered i.p. at a dose of 10 and 20 mg/kg in rats.
After dosing in rats, blood (250 µL) samples were collected in EDTA containing microcentrifuge tubes at 0.08, 0.16, 0.33, 0.50, 0.75, 1, 2, 3, 4, 5 and 6 h time points. Plasma was separated from the blood after centrifugation and kept in a −80 °C freezer for LC-MS/MS analysis.
The PK parameters of PSTi8 were estimated with a one-compartmental PK model in Phoenix WinNonlin. […] The PK parameters include the elimination constant (K10), absorption constant (K01), Tmax, elimination half-life (K10-HL), absorption half-life (K01-HL), Cmax, AUC (stands for model derived AUC0-∞), CL/F, mean residence time (MRT) and Vd/F. The bioavailability of PSTi8 was determined using the ratio between the AUC from i.p. or s.c. and i.v. routes, after normalizing the dose.
A short description of data set [4]: Microsomal metabolic stability study. The class given is in vitro ADME, SD rats. The note with it: 5 µM. On the procedure: RLM was prepared from SD rats from our lab, as previously reported. In vitro metabolic stability of PSTi8 was determined using RLM. The reaction milieu was prepared by adding 50 mM Tris buffer (pH 7.4), 40 mM MgCl2 pre-incubated at 37 °C along with RLM (0.5 mg/mL) and spiked at a concentration (5 µM) of PSTi8. The reaction was started with NADPH (1 mM) and without NADPH (negative control using Tris buffer). A total of 100 µL samples were collected at 0, 5, 15, 30, 45 and 60 min, and the reaction was quenched with liquid nitrogen. Samples were processed with the SPE procedure and analyzed using the LC-MS/MS method. Negative control was used to assess the peptide stability in the reaction milieu and the positive control (Testosterone, 25 µM) was incubated to obtain the microsomal activity.

Entries after “also recorded” stand apart in the source; their conditions may differ. Ends that are not written are not given here.

In general, solubility (thermodynamic) refers to the concentration in solution at equilibrium with solid. In general, AUC(0-inf) refers to the area under the concentration-time curve extrapolated to infinity. One may read the Cmax as the highest concentration seen after dosing. A word on the Tmax: it is the time at which the peak concentration occurs. One may read the half-life as the time needed for the level to fall by half in the phase considered. Read a high half-life as slow decline. For PEGKGEQEHSQQKEEEEEMAV-NH2 [PSTi8], the “RBC:plasma partition coefficient (KRBC/PL)” value in data set [1] (0.206 µM, time not given) was 2.46 ± 0.44. In data set [1] (summary in abstract), the “blood–plasma partitioning” value is on record as greater than 2. The thermodynamic solubility at 1 h in data set [2] (simulated gastric fluid (SGF) pH 1.2, 37 °C) is 9.3 mg/mL; in data set [2] (simulated intestinal fluid (SIF) pH 7.4, 37 °C) it was 25.8 mg/mL. Moreover, the “K01 (absorption constant)” value in data set [3] (i.p. 10 mg/kg, male SD rats) turned out to be 4.89 ± 1.74 h⁻¹; in data set [3] (i.p. 20 mg/kg, male SD rats) it was 4.94 ± 0.97 h⁻¹. Besides, the “K10 (elimination constant)” value in data set [3] (i.p. 10 mg/kg, male SD rats) was determined as 1.33 ± 0.60 h⁻¹; in data set [3] (i.p. 20 mg/kg, male SD rats) it was 1.26 ± 0.18 h⁻¹. Besides, the “PK pattern in dose proportionality study” value in data set [3] (i.p. 10 and 20 mg/kg, male SD rats) was “non-linear PK; also recorded: non-linear pharmacokinetics”. In addition, the AUC(0-inf) stood at 32400 ng·h/mL in data set [3] (10 mg/kg) and 111000 ng·h/mL in data set [3] (20 mg/kg). Also, the values for the Cmax in data set [3] (10 mg/kg) and in data set [3] (20 mg/kg) were 24.3 µg/mL and 85.6 µg/mL, respectively. Moreover, the time of peak concentration (Tmax) in data set [3] (10 mg/kg) and in data set [3] (20 mg/kg) was 22.8 min throughout. Further, the half-life in data set [3] (10 mg/kg, K01-HL (absorption half-life), i.p. 10 mg/kg, male SD rats) was 9 ± 3 min; in data set [3] (10 mg/kg, K10-HL (elimination half-life), i.p. 10 mg/kg, male SD rats) it was 35.4 ± 13.8 min; in data set [3] (20 mg/kg, K01-HL (absorption half-life), i.p. 20 mg/kg, male SD rats), 8.4 ± 1.8 min; in data set [3] (20 mg/kg, K10-HL (elimination half-life), i.p. 20 mg/kg, male SD rats), 33.6 ± 5.4 min. Also, the “stability in rat liver microsomes (in words)” value in data set [4] (RLM 0.5 mg/mL, NADPH 1 mM) was “stable; also recorded: high stability”. The “degradation in negative control experiment” value in data set [4] (RLM, without NADPH) was “no degradation”.
